# Patent US12059403B2, “Use of SWELL1 inhibitors and modulators to treat type 2 diabetes and obesity” (UNIVERSITY OF IOWA RESEARCH FOUNDATION, priority 2016, dated 2024)
# Where a chain is given by its changes, count along the chain named.
# Assays:
# WT MIN6 cells = assay: Glucose-stimulated intracellular Ca2+ in WT MIN6 cells; format: cell-based, mouse; conditions: 10 μM
# Method: To determine whether SWELL1-mediated depolarizing Cl^− current is required to depolarize the β-cell membrane potential to the activation threshold of voltage-gated Ca^2+ channels (VGCC) essential for insulin granule fusion, glucose-stimulated intracellular Ca^2+ was measured in WT and SWELL1-deficient MIN6 β-cells, primary mouse and human β-cells.
# [1] = tested on: WT primary murine β-cells; assay: Glucose-stimulated Ca2+ signaling (GCaMP6s imaging) in WT primary murine β-cells; format: cell-based; conditions: 10 μM
# Description: SWELL1-dependent Ca^2+ signaling was then examined in primary mouse and human β-cells. Adenoviruses expressing the genetically encoded Ca^2+-sensor GCaMP6s under control of the rat insulin promoter 1 (RIP1), either alone (Ad-RIP1-GCaMP6s), or in combination with Cre-recombinase (Ad-RIP1-Cre-P2A-GCaMP6s), were generated. This approach provides a robust β-cell restricted fluorescent Ca^2+ sensor while simultaneously allowing for β-cell targeted Cre-mediated SWELL1 deletion in cultured SWELL1^fl/fl islets isolated from SWELL1^fl/fl mice. […] A similar approach was used in human islets, whereby islets were co-transduced with Ad-RIP1-GCaMP6s and either Ad-U6-shSWELL1-mCherry or Ad-U6-shSCR-mCherry. Upon islet dissociation, only double-labelled GCaMP6s+/mCherry+ primary human β-cells were imaged. As with mouse primary β-cells, robust glucose-stimulated Ca^2+ transients in Ad-shSCR treated human primary β-cells were observe, and this is markedly abograted upon Ad-shSWELL1-mediated SWELL1 knock-down. […] In pancreatic β-cells, physiological intracellular Cl^− concentration is maintained at 34-36 mM by NKCC1 transporters to generate a depolarizing Cl^− current upon activation of a Cl^− conductance, since ECl−=˜−35 mV. […]
# [2] = biological target: T1, volume-regulated anion current (VRAC) (Mus musculus, UniProt Q80WG5); assay: Patch-clamp of swell-activated current in mature murine iWAT adipocytes swelled by positive pressure; format: cell-based; conditions: positive pressure swelling, whole-cell
# T1 construct: present in the murine 3T3-F442A and human adipocyte cell lines (NPAD) upon hypotonic swelling; endogenous in cells; host or cells: 3T3-F442A adipocytes
# T1 sequence (Q80WG5 1-810): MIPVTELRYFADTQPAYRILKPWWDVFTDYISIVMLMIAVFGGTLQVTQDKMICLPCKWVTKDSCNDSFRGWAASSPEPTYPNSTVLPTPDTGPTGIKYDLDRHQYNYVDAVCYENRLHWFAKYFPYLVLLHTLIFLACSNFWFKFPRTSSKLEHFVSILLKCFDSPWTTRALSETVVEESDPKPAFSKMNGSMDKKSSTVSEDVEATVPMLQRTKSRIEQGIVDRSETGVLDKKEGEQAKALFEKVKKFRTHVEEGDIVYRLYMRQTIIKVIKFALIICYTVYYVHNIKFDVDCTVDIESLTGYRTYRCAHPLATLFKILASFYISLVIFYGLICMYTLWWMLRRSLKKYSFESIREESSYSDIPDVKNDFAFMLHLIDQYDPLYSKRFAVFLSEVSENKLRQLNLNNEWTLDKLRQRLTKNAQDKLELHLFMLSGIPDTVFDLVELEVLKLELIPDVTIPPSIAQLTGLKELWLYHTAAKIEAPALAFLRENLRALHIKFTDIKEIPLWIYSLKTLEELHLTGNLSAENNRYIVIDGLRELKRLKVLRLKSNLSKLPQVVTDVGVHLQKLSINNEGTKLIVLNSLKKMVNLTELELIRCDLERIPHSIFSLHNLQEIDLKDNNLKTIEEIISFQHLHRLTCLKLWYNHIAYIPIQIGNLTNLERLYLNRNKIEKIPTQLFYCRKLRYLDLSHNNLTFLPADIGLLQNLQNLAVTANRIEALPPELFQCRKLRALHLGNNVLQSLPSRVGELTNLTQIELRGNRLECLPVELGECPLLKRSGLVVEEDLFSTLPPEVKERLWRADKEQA
# Method: To identify a putative swell-activated ionic current in adipocytes, patch-clamp recordings were performed on mature murine adipocytes freshly isolated from inguinal white adipose tissue (iWAT). Ionic currents were measured in voltage-clamp mode while simultaneously swelling the adipocyte by applying positive pressure (˜3-5 mmHg, whole-cell configuration) via the patch-pipette. After a few minutes, activation of a large swell-activated current was observed. This current is outward rectifying, characterized by larger outward current at positive voltages compared to inward currents at negative voltages during sequential voltage ramps or voltage steps, with the current amplitude proportional to the extent of adipocyte swelling. This current reverses direction at −11.7±2.5 mV, which is near the reversal potential of chloride under these conditions (−11.5 mV, junction potential corrected). […] Finally, this swell-activated adipocyte current is blocked by 4-[(2-Butyl-6,7-dichloro-2-cyclopentyl-2,3-dihydro-1-oxo-1H-inden-5-yl)oxy]butanoic acid (DCPIB), a selective blocker of the volume-regulated anion current (VRAC) or volume-sensitive outwardly rectifying chloride current (VSOR).
# [3] = biological target: T1, volume-regulated anion current (VRAC); assay: Patch-clamp of swell-activated current in 3T3-F442A adipocytes upon hypotonic swelling; format: cell-based; conditions: murine 3T3-F442A adipocytes
# [4] = biological target: T2, volume-regulated anion current (VRAC) (Homo sapiens, UniProt Q8IWT6); assay: Patch-clamp of swell-activated current in human adipocyte cell line (NPAD) upon hypotonic swelling; format: cell-based
# T2 construct: present in the murine 3T3-F442A and human adipocyte cell lines (NPAD) upon hypotonic swelling; endogenous in cells; host or cells: human adipocyte cell line (NPAD)
# T2 sequence (Q8IWT6 1-810): T1 sequence (Q80WG5 1-810) with S75P, S76G, V86I, A276I, V591A, V715I, A722T, S792N
# β-cell VRAC [5] = biological target: T3, β-cell VRAC (Mus musculus, UniProt Q80WG5); assay: Perforated-patch clamp of glucose-activated VRAC in MIN6 cells; format: cell-based; conditions: 35-37° C.
# T3 construct: endogenous in cells; host or cells: MIN6 mouse insulinoma cells
# T3 sequence (Q80WG5 1-810): T1 sequence (Q80WG5 1-810)
# Method: (§1) Having established that SWELL1 is required for this previously enigmatic depolarizing swell-activated Cl^− current in MIN6 cells, and in both mouse and human primary β-cells, whether physiologic glucose-mediated β-cell swelling is sufficient to activate SWELL1-mediated VRAC was investigated. First, β-cell size was measured by light microscopy in WT and SWELL1-deficient primary murine and human β-cells in response to glucose-stimulated swelling (at 35-37° C.). WT murine β-cells swell 6.8±1.6% in cross-sectional area upon perfusion of 16.7 mM glucose (from 1 mM basal glucose) and reach a maximum size at 12 minutes post glucose-stimulation, followed by a reduction in β-cell size, consistent with regulatory volume decrease (RVD). […] WT human β-cells show a similar trend, swelling 8.6±3.5%, followed by RVD. […] Next, the perforated-patch clamp technique was applied to primary β-cells at 35-37° C. in order to measure currents under the same physiological conditions that induce glucose-mediated β-cell swelling. β-cell VRAC activates in response to physiological increases in glucose in MIN6 cells and in both mouse and human β-cells, and is blocked by the selective VRAC inhibitor, DCPIB. […]
# β-cell VRAC [6] = biological target: T3, β-cell VRAC; assay: Perforated-patch clamp of glucose-activated VRAC in primary mouse β-cells; format: cell-based; conditions: 35-37° C.
# Method: as §1
# β-cell VRAC [7] = biological target: T4, β-cell VRAC (Homo sapiens, UniProt Q8IWT6); assay: Perforated-patch clamp of glucose-activated VRAC in primary human β-cells; format: cell-based; conditions: 35-37° C.
# T4 construct: from tissue; host or cells: primary β-cells from human pancreatic islets
# T4 sequence (Q8IWT6 1-810): T1 sequence (Q80WG5 1-810) with S75P, S76G, V86I, A276I, V591A, V715I, A722T, S792N
# Method: as §1
# SWELL1 = SWELL1 protein expression in cultured adipocytes; format: cell-based
# [8] = tested on: mice raised on a high-fat diet; assay: Glucose tolerance in mice raised on a high-fat diet; format: in vivo
SMILES,glucose-stimulated Ca2+ signaling (WT MIN6 cells),glucose-stimulated Ca2+ signaling [1],swell-activated adipocyte current [2],swell-activated current [3],swell-activated current [4],β-cell VRAC activated by physiological increases in glucose (β-cell VRAC [5]),β-cell VRAC activated by physiological increases in glucose (β-cell VRAC [6]),β-cell VRAC activated by physiological increases in glucose (β-cell VRAC [7]),SWELL1 protein expression (SWELL1),glucose tolerance associated with obesity [8]
CCCCNc1cc(C(=O)O)cc(S(N)(=O)=O)c1Oc1ccccc1 [bumetanide],fully inhibits,fully inhibits,,,,,,,,
"CCCCC1(C2CCCC2)Cc2cc(OCCCC(=O)O)c(Cl)c(Cl)c2C1=O (stereo not shown) [DCPIB, 4-[(2-Butyl-6,7-dichloro-2-cyclopentyl-2,3-dihydro-1-oxo-1H-inden-5-yl)oxy]butanoic acid]",,,blocked,fully inhibited,fully inhibited,blocked,blocked,blocked,induced a compensatory increase,normalized
